Results taken from US20220256848A1, “NEO-BAVAISOFLAVONE AND COMPOSITIONS THEREOF AND THEIR USE AS PESTICIDES” (priority 2019, published 2022).
Marks after values point to notes of the source that are not given here.

Assays:
[1] = tested on: Puccinia stritiformis (yellow rust); test: Uredospores of yellow rust in pustules on field-treated wheat leaves (experiment 108); format: in vivo
[2] = tested on: Phytophthora infestans; format: cell-based; settings: activity grade x repeats /12 x100
[3] = tested on: Fusarium oxysporum; test: In-vitro screening against Fusarium oxysporum; format: cell-based; settings: grade x repeats x days of activity /252 x100
From the text: (§1) The bioactivity values are in % and reflect the potential of eradicating the target pests.
(§2) b. Pseudomonas syringae, Rhizoctonia solani, Fusarium oxysporum, Pythium aphanidermatum—activity grade (1/2/3) X repeats# X days of activity/252 (maximal value 3×4×21=252)*100

[4] = tested on: Sclerotinia sclerotiorum; test: Microplate hyphae growth assay against Sclerotinia sclerotiorum; format: cell-based
Description: Summary: Diluted purified neo-bavaisoflavone was added to microplate wells and mixed with 50 ul of hyphae suspension and growth of the fungus starting from blended hyphae was monitored by visual inspection.
Background: Sclerotinia sclerotiorum is a fungus of belonging to the Ascomycetes and it is a soil borne pathogen. It is difficult to produce large amounts of spores of Sclerotinia sclerotiorum, that led to decision to use hyphae in this screening rather than spores for inoculation.
2) Add 50 ul of hyphae suspension to the wells of the microplate, mix the spore suspension vigorously by hand and decant amount needed for one plate (5 ml) to keep the hyphae well suspended
(§3) 4) Shake the plate for 10 min at 2000 RPM to mix the neo-bavaisoflavone with the hyphae suspension
7) Insert microplates into a plastic box and put the box in the incubator at 21° C.
1) Screen plate at […]: 4, 7, 14 and 21 days after inoculation
2) Use a lamp for visual assessment of compounds effect on fungal growth overtime
4) Compare the hyphal growth of each well to the hyphal growth of the control plate wells (Wells containing active fungicides or 0.5% DMSO solution)
5) Write the results on a special form: clear well=3 (no growth of hyphae), normal hyphal structure=1 (normal growth), inconclusive=2 (solid structure of unexpected type, or partial cover of the area) […]

[5] = tested on: Puccinia stritiformis (yellow rust); test: Field validation in wheat, yellow rust leaf infection intensity (curative); format: in vivo; settings: wheat field experiments
[6] = tested on: Puccinia sorghi; test: Puccinia infection of corn seedlings test (growth room); format: in vivo; settings: corn plants, five independent growth room experiments
From the text: FIGS. 1-5 show effect of neo-bavaisoflavone (NBI) on corn leaf infection by Puccinia sorghi in five independent experiments, determined as leaf % covered by the fungus. *—p-value <0.05, **—p-value is <0.01, *** —p-value is <0.001. Signum—A reference fungicide containing 26.7% w/w boscalid and 6.7% w/w pyraclostrobin (BASF®). Fl, Formulation 1; F2, Formulation 2—see Example 5. ppm—parts per million.
In order to assist the compound dissolution to final working concentration and its spread over the sprayed surface first dry weighed Neo-bavaisoflavone was dissolved in dimethyl-sulfoxide solvent with 1:9 ratio and then brought up to the final volume used for the validation with double distilled water. Before spraying, non-ionic detergent tween 20 was added to final concentration of 0.05%.
In order to assist the compound dissolution to final working concentration and its spread over the sprayed surface first dry weighed Neo-bavaisoflavone was dissolved in absolute ethanol with 1:8 ratio, sonicated for 5 mins and then another part of non-ionic detergent tween 20 was added for formulation finalization. Before spraying, additional amount of 0.05% tween 20 was added (disregarding amount of tween 20 added before).
Protocol name: Puccinia infection of corn seedlings test
General description: inoculation on corn, collection, preparation of spore suspension and material activity study, of Puccinia sorghi.
• Use 8 days old seedlings prepared as explained above • Prepare treatment for spraying—about 1 ml for each plant • Add Tween 20 up to 0.05% to the treatments • Spray treatment on to the leaves till full saturation (use a spray bottle) and let dry in the growth room • Repeat spray on the second day and let dry • On the second day (after about 4 hours from the treatment spray) inoculate plants using the Puccinia spore suspension • Use spraying bottle to spray about 1 ml (till full saturation) of the spore suspension on to the leaves of 9 days old corn seedlings • Put the pots with the inoculated seedlings in a dark moist chamber with heated water at the bottom. […]

[7] = tested on: Pectobacterium carotovorum; test: In-vitro screening against Pectobacterium carotovorum; format: cell-based; settings: grade x repeats x days of activity /84 x100
From the text: as §1
d. Pectobacterium carotovorum—activity grade (1/2/3) X repeats# X days of activity/84 (maximal value 3×4×7=[…])*100

[8] = tested on: Botrytis cinerea; test: In-vitro screening against Botrytis cinerea; format: cell-based; settings: grade x repeats x days of activity /168 x100
From the text: as §1
c. Botrytis cinerea—activity grade (1/2/3) X repeats# X days of activity/168 (maximal value 3×4×14=168)*100

[9] = tested on: Puccinia sorghi; format: cell-based
[10] = tested on: Spodoptera litoralis; test: In-vitro screening matrix, Spodoptera litoralis
From the text: as §1

[11] = tested on: Puccinia triticina; test: Puccinia triticina infected wheat, growth room under controlled temperature; format: in vivo; settings: 200 ppm
From the text: Mean of 3 independent replicates is presented. ** means that p-value is <0.01. Formulation 1 see “Formulation preparation for in-planta validation” below.
We conducted 3 independent experiments in greenhouse where we estimated neo-bavaisoflavone's (NBI) potential to prevent and control Puccinia triticina in wheat plants (FIG. 6). Each bar in FIG. 6 represents average of four replicates per treatment. Neo-bavaisoflavone controlled the leaf rust with the following efficacies: between 30% to 50% at 200 ppm and between 30% to 40% at 400 ppm. One additional experiment was conducted under controlled temperature in growth room conditions (FIG. 7) where neo-bavaisoflavone controlled the wheat leaf rust with the efficacy up to 40% at 200 ppm.

[12] = tested on: Rhizoctonia solani; test: Microplate hyphae growth assay against Rhizoctonia solani; format: cell-based; settings: grade x repeats x days of activity /252 x100
Description: Summary: Diluted purified neo-bavaisoflavone was added to microplate wells and mixed with 50 ul of hyphae suspension and growth of the fungus, starting from blended hyphae, was monitored by plate reader and visual inspection.
2) Add 50 ul of hyphae suspension to the wells of the microplate using a multi-pipette, mix the spore suspension vigorously by hand and decant amount needed for one plate (5 ml) to keep the hyphae well suspended
as §3
(§4) 7) Read the plate using the plate reader
(§5) 9) Insert collected plates to a plastic box with cloth cover and put the box in the incubator at 27° C.
1) Screen plate at 3 more dates: 3d, 7d, 14d and 21d following the assay start
2) Calculate the difference of absorbance between each screen and the read at zero time
(§6) 3) Calculate the percentage of growth inhibition of each well at each time point. Use the results of the DMSO treatment of the control plate as 100% growth
as §1, §2

[13] = tested on: Pythium aphanidermatum; test: Microplate zoospore growth assay against Pythium aphanidermatum; format: cell-based; settings: grade x repeats x days of activity /252 x100
Description: Summary: Diluted purified neo-bavaisoflavone was added to microplate wells and mixed with 50 ul of zoospores in PDBC suspension and the growth of the fungus, starting from zoospores, was monitored by plate reader and visual inspection
2) Add 50 ul of zoospore suspension inoculum to the wells of the microplate using a multi-pipette. Mix the spore suspension vigorously by hand and decant amount needed for one plate (5 ml) to keep the zoospores well suspended
as §3, §4, §5
1) Read out the plate at 3 more dates: 3d, 7d, 14d and 21d following the assay start
2) Calculate the difference of absorbance between each readout and the readout at zero time
as §6
4) Prepare a table of the results of hits that were repeated in all 4 repeats. Set a column for each time point.
as §1
b. […]

[14] = tested on: Pseudomonas syringae; test: Microplate bacterial growth assay against Pseudomonas syringae; format: cell-based; settings: grade x repeats x days of activity /252 x100
Description: Summary: Diluted purified neo-bavaisoflavone was added to microplate wells and mixed with […] of frozen bacteria suspension and growth of the bacteria was monitored by visual inspection.
Background: Pseudomonas is a rod-shaped Gram-negative bacterium. Frozen bacteria stock of 60% glycerol was used as an inoculum for the screening experiment.
1) Take a plate with Neo-bavaisoflavone (10 ul) from the −20° C. freezer and thaw it on the bench for at least 20 min
2) Add 80 ul of bacteria suspension with growth medium to each well of the microplate using a multi-pipette
4) Shake the plate for 10 min at 2000 RPM to mix the Neo-bavaisoflavone with the bacteria suspension
6) Insert the plates to a plastic box with cover and put the box in the incubator at 28° C.
1) Screen the microplate at 5 dates: 3, 5, 7, 14 and 21 days after inoculation
2) Use a lamp to visually evaluate the bacterial growth
3) Prepare plates for screening: shake plate at 2000 RPM for 2 min to suspend the bacteria and then centrifuge plate at 1000 RCF for a few seconds
5) Compare the transparency of each well to the transparency of the control wells (wells containing control bactericide or 0.5% DMSO solution)
Write the results on a special form: clear=3 (no growth of bacteria), turbid=1(normal bacterial growth), inconclusive=2 (very low turbidity compared to growth in 0.5% DMSO solution) […]

[15] = tested on: Mizus Persicae; test: In-vitro screening matrix, Mizus Persicae
From the text: as §1

[16] = Day 0 after field treatment, ±SE, experiment 108
[17] = Day 7 after field treatment, only one case, no replicates

## CC(C)=CCc1cc(-c2coc3cc(O)ccc3c2=O)ccc1O [Neo-bavaisoflavone]
[1]; [16]
  Collapsed spores (Percent): 36.8 ± 13.03%
  Number of collapsed spores (No./pustule): 4.8 ± 2.03 No./pustule
  Number of uredospores/pustule: 14.8 ± 3.37 No.
[1]; [17]
  Collapsed spores (Percent): 1.9%
  Number of collapsed spores (No./pustule): 0.8 No./pustule
  Number of uredospores/pustule: 6.5* No.
[2]
  Relative Activity value (%): 0%
[3]
  Relative Activity value (%): 0%
[4]
  Relative Activity value (%): 17%
[5]
  relative leaf area covered by the fungi: significantly reduced
[6]; 200 ppm
  average efficacy in preventing and controlling Puccinia sorghi: 87.39%
[6]; 400 ppm
  average efficacy in preventing and controlling Puccinia sorghi: 91.94%
[6]; 800 ppm
  average efficacy in preventing and controlling Puccinia sorghi: 94.07%
[7]
  Relative Activity value (%): 0%
[8]
  Relative Activity value (%): 0%
[9]
  Relative Activity value (%): 75%
[10]
  Relative Activity value (%): 0%
[11]
  efficacy of wheat leaf rust control: up to 40%
[12]
  Relative Activity value (%): 75%
[13]
  Relative Activity value (%): 75%
[14]
  Relative Activity value (%): 100%
[15]
  Relative Activity value (%): 0%
